Reference: patent EP4563149A1, “LURBINECTEDIN, ECUBECTEDIN AND A RELATED COMPOUND FOR USE IN THE TREATMENT OF SKIN CANCERS” (Pharma Mar, S.A., priority 2023, dated 2025)
Read-outs that look alike come from different tables or passages of the source.

How the values were obtained:
[1] = tested on: RPB1 (RNA pol II elongation subunit); test: Immunoblotting of RPB1 in 501mel; assay type: cell-based, human; conditions: 24h at 5×IC50
Protocol: Cells were washed once with cold PBS, rinsed with a cell scraper, pelleted and resuspended in LSDB 0.5M buffer (0.5M KCI, 50mM Tris HCl pH 7.9, 20% Glycerol, 1% NP40, 1mM DTT, PIC). Afterwards cells were fully disrupted with 3 cycles of heat shock in liquid nitrogen and 37°C water bath and centrifugated 15min at 14,000rpm to pellet cell debris. Ten micrograms of extract were loaded on SDS-PAGE before transfer to nitro-cellulose membranes and immunoblotting.

MM029 = test: Cell viability assay (PrestoBlue), 72h; conditions: Homo sapiens
Protocol: Cells were grown at 37°C in 5% CO2 (10% for Hermes 3A) and were regularly checked for mycoplasma contamination. […] Melanoma IGR cell lines (IGR37 and IGR39) were grown in RPMI w/o HEPES (Gibco, Invitrogen) supplemented with 15% FCS and gentamycin.
(§7) To determine the IC50 (half maximal inhibitory concentration) of these cells to various inhibitors, cell viability assays were performed.
(§8) After 72h of treatment with different concentrations of the compounds, cells were treated with PrestoBlue reagent according to the manufacturer's instructions. The absorbance per well was measured with a Cellinsight CX5 microplate reader. Data were analyzed using Prism9 statistical software.

501mel = test: Cell viability assay (PrestoBlue), 72h; conditions: Homo sapiens
Protocol: (§9) Cells were grown at 37°C in 5% CO2 (10% for Hermes 3A) and were regularly checked for mycoplasma contamination. […] Melanoma cell lines 501mel and SKmel28 were grown in RPMI w/o HEPES (Gibco, Invitrogen) supplemented with 10% FCS and gentamycin. Vemurafenib-resistant cells (501melVemuR and MM074VemuR) were additionally supplemented with 1.5 µM of vemurafenib. Melanoma IGR cell lines (IGR37 and IGR39) were grown in RPMI w/o HEPES (Gibco, Invitrogen) supplemented with 15% FCS and gentamycin.
as §7, §8

[2] = tested on: WM-266-4 melanoma xenografts; conditions: 1.2 mg/kg intravenous
Protocol: (§1) Female athymic nu/nu mice (Harlan Laboratories Models, S.L. Barcelona, Spain or Envigo, Spain) were utilized for all experiments. Animal were housed in individually ventilated cages Sealsafe® Plus, Techmplast S.P.A.), up to ten per cage on a 12-hour light-dark cycle at 21-23 °C and 40-60 % humidity. Mice were allowed free access to irradiated standard rodent diet (Tecklad 2914C) and sterilized water. Animals were acclimated for at least 5 days prior to tumor implantation with a tumor cell suspension.
(§2) The cell line used are: • 501mel • IGR-37 • SK-Mel-28 • WM-266-4 • LOX-IMVI • 501mel^Vemur
(§3) In xenograft studies with cell lines: • Tumour volume was calculated using the equation […], where a: length (longest diameter) and b: width (shortest diameter) were measured in mm by using digital caliper (Fowler Sylvac, S235PAT). Tumour dimensions and body weights were recorded 2-3 times per week starting from the first day of treatment. • When tumors reached ca. 150-250 mm^3, tumour bearing animals (N = 8-10/group) were randomly allocated into the treatment groups, based on body weight and tumour measurements by using NewLab Oncology Software (version 2.25.06.00). • Comparison between median tumour volume of treated and placebo groups was used for evaluation of the antitumoural efficacy. • Animals were euthanized when their tumours reached ca. 1,500 mm^3 and/or severe necrosis was seen.
(§4) Treatments producing >20 % lethality and/or 20% net body weight loss were considered toxic.
(§5) In these experiments, PM14 and Compound IA, as well as placebo, were intravenously administered once per week for 3 consecutive weeks, on days 0, 7 and 14, whenever it was possible.
Table 7. Tumour volume evaluation in WM-266-4 melanoma xenografts with PM14 and Compound IA and placebo.

[3] = tested on: xenografts with various melanoma cell lines; conditions: different xenografts, 1.2 mg/kg intravenous once per week for 3 weeks
Protocol: as §1, §2
as §3, with “seen. […]” for “seen.”

MM074^VemuR = test: Cell viability assay (PrestoBlue), 72h; conditions: Homo sapiens
Protocol: Cells were grown at 37°C in 5% CO2 (10% for Hermes 3A) and were regularly checked for mycoplasma contamination. MM patient-derived short-term melanoma cultures (MM011, MM074, MM117, MM029, MM047, MM099) were grown in HAM-F10 (Gibco, Invitrogen) supplemented with 10% Fetal Calf Serum (FCS), 25 mM HEPES, 5.2 mM GLUTAMAX and penicillin-streptomycin. Melanoma cell lines 501mel and SKmel28 were grown in RPMI w/o HEPES (Gibco, Invitrogen) supplemented with 10% FCS and gentamycin. Vemurafenib-resistant cells (501melVemuR and MM074VemuR) were additionally supplemented with 1.5 µM of vemurafenib. Melanoma IGR cell lines (IGR37 and IGR39) were grown in RPMI w/o HEPES (Gibco, Invitrogen) supplemented with 15% FCS and gentamycin.
as §7, §8

MM074 melanospheres [4] = test: Melanosphere viability (CellTiterGlo); assay type: cell-based, human; conditions: 72h, doses equivalent to 5×IC50
Protocol: (§6) MM074 proliferative/differentiated cell line were seeded (5×10^4 cells) in ultra-low attachment hydrogel-layered 96 well plates in KO DMEM medium supplemented with 20% KSR, AANE, 2 mM Glutamax, Penicillin/Streptomycin and 100 uM Beta-mercaptoethanol. To allow for melanosphere formation, cells were left to grow for 4 days before drug treatment.
To analyze melanosphere viability after drug treatment, cells were treated with CellTiterGlo reagent (Promega) according to the manufacturer's instructions. Luminescence signals were measured with a Centro XS LB 960 microplate reader (Berthold).

MM074 melanospheres [5] = test: Melanosphere apoptosis (AnnexinV-APC / propidium iodide); assay type: cell-based, human; conditions: 72h
Protocol: as §6
For apoptosis assays with 3D-grown melanoma cells, TrypLe Select 10x reagent (Gibco) was used to dissociate melanospheres to obtain single-cell suspensions. These cells were incubated with AnnexinV-APC (Biolegend) and Propidium Iodide (PI, Biolegend). With bivariant dot plots, it was distinguished between viable (AnnexinV-/PI-), early apoptotic (AnnexinV+/PI-), late apoptotic (AnnexinV+/PI+) and necrotic cells (AnnexinV-/PI+).

MM117 = test: Cell viability assay (PrestoBlue), 72h; conditions: Homo sapiens
Protocol: as §9, §7, §8

IGR37 = test: Cell viability assay (PrestoBlue), 72h; conditions: Homo sapiens, IGR-37, 72 h
Protocol: as §9, §7, §8

[6] = tested on: IGR-37 melanoma xenografts; conditions: 1.2 mg/kg intravenous
Protocol: as §1, §2, §3, §4, §5
Table 5. Tumour volume evaluation in IGR-37 melanoma xenografts with PM14 and Compound IA and placebo.

[7] = tested on: Sk-mel-28 melanoma xenografts; conditions: 1.2 mg/kg intravenous
Protocol: as §1, §2, §3, §4, §5
Table 6. Tumour volume evaluation in Sk-mel-28 melanoma xenografts with PM14 and Compound IA and placebo.

[8] = tested on: melanoma cell cultures or cell lines; test: Clonogenic assay; assay type: cell-based, human; conditions: 48h at IC50 concentrations, then 10 days without drug
Protocol: Based on the cell viability assays conducted above, the efficacy of lurbinectedin, PM14 or Compound IA on melanoma cell proliferation was investigated. Initially, a clonogenic assay was performed. Cells were drug-treated at IC50 concentrations during 48h before seeding 1×10^3 or 2×10^3 cells in 6-well plates without drug, wherein they grew for 10 days to allow for colony formation. Afterwards, cells were fixed for 10min with 4% formaldehyde solution, washed once with PBS and stained with Crystal Violet solution 0.2% for 15 min. The wells were finally washed twice with deionized water, air dried, scanned and analyzed with Fiji software to count the number of colonies.

With `COc1c(C)cc2c(c1O)[C@@H]1[C@@H]3[C@@H]4SC[C@]5(N[C@H](CO)Cc6c5oc5ccccc65)C(=O)OC[C@@H](c5c6c(c(C)c(OC(C)=O)c54)OCO6)N3[C@@H](O)[C@H](C2)N1C` [Compound IA] the “RPB1 (RNA pol II elongation subunit) degradation” value [1] was “pronounced”, the IC50 (MM029) was 4.73 nM and the IC50 (501mel) was 1.74 nM. The “Median Tumour Volume” value ([2]; days 0, 7 and 14, day 0) was 169.5 mm^3, the “Median Tumour Volume” value ([2]; days 0, 7 and 14, day 3) was 109.8 mm^3 and the “Median Tumour Volume” value ([2]; days 0, 7 and 14, day 5) was 100 mm^3. For the same compound, the “Median Tumour Volume” value ([2]; days 0, 7 and 14, day 7) was 104.4 mm^3, the “Median Tumour Volume” value ([2]; days 0, 7 and 14, day 10) was 97.8 mm^3 and the “Median Tumour Volume” value ([2]; days 0, 7 and 14, day 12) was 89.2 mm^3. For the same compound, the “Median Tumour Volume” value ([2]; days 0, 7 and 14, day 14) was 94.9 mm^3, the “Median Tumour Volume” value ([2]; days 0, 7 and 14, day 17) was 68.8 mm^3 and the “Median Tumour Volume” value ([2]; days 0, 7 and 14, day 19) was 75.7 mm^3. The “Median Tumour Volume” value ([2]; days 0, 7 and 14, day 21) was 95.2 mm^3, the “Median Tumour Volume” value ([2]; days 0, 7 and 14, day 24) was 75.7 mm^3 and the “Median Tumour Volume” value ([2]; days 0, 7 and 14, day 26) was 96.7 mm^3. For the same compound, the “Median Tumour Volume” value ([2]; days 0, 7 and 14, day 28) was 99.4 mm^3, the “Median Tumour Volume” value ([2]; days 0, 7 and 14, day 34) was 134.3 mm^3 and the “Median Tumour Volume” value ([2]; days 0, 7 and 14, day 41) was 275.2 mm^3. For the same compound, the “Median Tumour Volume” value ([2]; days 0, 7 and 14, day 45) was 312.1 mm^3, the “Median Tumour Volume” value ([2]; days 0, 7 and 14, day 48) was 461.7 mm^3 and the “Median Tumour Volume” value ([2]; days 0, 7 and 14, day 55) was 749.7 mm^3. For the same compound, the “Median Tumour Volume” value ([2]; days 0, 7 and 14, day 62) was 985.3 mm^3, the “Median Tumour Volume” value ([2]; days 0, 7 and 14, day 69) was 1,145.3 mm^3 and the “tumor volume compared to the placebo” value [3] was “reduction of the volume tumor”. For the same compound, the IC50 (MM074^VemuR) was 3.08 nM, the “cell viability in 3D culture” value (MM074 melanospheres [4]) was “significant cytotoxic effects” and the “late apoptotic cells positive for Annexin V and propidium iodide” value (MM074 melanospheres [5]) was “substantial population of late apoptotic cells”. For the same compound, the IC50 (MM117) was 1.16 nM, the IC50 (IGR37) was 1.48 nM and the “Median Tumour Volume” value ([6]; days 0, 7 and 14, day 0) was 150 mm^3. The “Median Tumour Volume” value ([6]; days 0, 7 and 14, day 2) was 236.5 mm^3, the “Median Tumour Volume” value ([6]; days 0, 7 and 14, day 4) was 377.5 mm^3 and the “Median Tumour Volume” value ([6]; days 0, 7 and 14, day 7) was 608 mm^3. The “Median Tumour Volume” value ([6]; days 0, 7 and 14, day 9) was 886.9 mm^3, the “Median Tumour Volume” value ([6]; days 0, 7 and 14, day 14) was 1,163.9 mm^3 and the “Median Tumour Volume” value ([6]; days 0, 7 and 14, day 16) was 936.5 mm^3. For the same compound, the “Median Tumour Volume” value ([6]; days 0, 7 and 14, day 18) was 1,027.6 mm^3, the “Median Tumour Volume” value ([7]; days 0, 7 and 14, day 0) was 152.3 mm^3 and the “Median Tumour Volume” value ([7]; days 0, 7 and 14, day 2) was 179.8 mm^3. For the same compound, the “Median Tumour Volume” value ([7]; days 0, 7 and 14, day 4) was 232.7 mm^3, the “Median Tumour Volume” value ([7]; days 0, 7 and 14, day 7) was 302 mm^3 and the “Median Tumour Volume” value ([7]; days 0, 7 and 14, day 9) was 397.8 mm^3. For the same compound, the “Median Tumour Volume” value ([7]; days 0, 7 and 14, day 11) was 476.6 mm^3, the “Median Tumour Volume” value ([7]; days 0, 7 and 14, day 14) was 551.1 mm^3 and the “Median Tumour Volume” value ([7]; days 0, 7 and 14, day 16) was 585.8 mm^3. For the same compound, the “Median Tumour Volume” value ([7]; days 0, 7 and 14, day 18) was 676.6 mm^3, the “Median Tumour Volume” value ([7]; days 0, 7 and 14, day 21) was 748.7 mm^3 and the “Median Tumour Volume” value ([7]; days 0, 7 and 14, day 23) was 866.2 mm^3. The “Median Tumour Volume” value ([7]; days 0, 7 and 14, day 25) was 906.6 mm^3, the “Median Tumour Volume” value ([7]; days 0, 7 and 14, day 28) was 1,203.1 mm^3 and the “Median Tumour Volume” value ([7]; days 0, 7 and 14, day 32) was 1,331.3 mm^3. The “Median Tumour Volume” value ([7]; days 0, 7 and 14, day 35) was 1,593.1 mm^3 and the “colony formation (number of colonies)” value [8] was “significant impact”.
